Measured values published in patent US9458181B2, “Cathepsin cysteine protease inhibitors” (Merck Sharp & Dohme Corp., priority 2013, dated 2016).

Assays:
human cathepsin K = human cathepsin K (UniProt P43236); experiment: Cathepsin K Assay (hrbCat K); format: biochemical; settings: human cathepsin K 0.4 nM, Z-Leu-Arg-AMC 8 μM, pH 5.5, 15 min preincubation; read-out: hrbCat K IP
Procedure: Cathepsin K Assay (hrbCat K)
(§1) Serial dilutions (⅓) from 500 μM down to 0.025 μM of test compounds were prepared in dimethyl sulfoxide (DMSO). Then 0.5 μL of DMSO from each dilution were added to 18.75 μL of assay buffer (MES, 50 mM (pH 5.5); EDTA, 2.5 mM; DTT, 2.5 mM and 10% DMSO) containing human cathepsin K (0.4 nM) in assay buffer solution. The assay solutions were mixed for 5-10 seconds on a shaker plate and incubated for 15 minutes at room temperature. Z-Leu-Arg-AMC (8 μM) in 6.25 μL of assay buffer was added to the assay solutions. Hydrolysis of the coumarin leaving group (AMC) was followed by spectrofluorometry (Exλ=360 nm; Emλ=460 nm) for 30 minutes. Percent of inhibition were calculated by fitting experimental values to standard mathematical model for dose response curve.

human cathepsin F = target: T1, human cathepsin F (Homo sapiens, UniProt Q9UBX1); experiment: Cathepsin F assay (hCat F); format: biochemical; settings: human cathepsin F 10 nM, Z-Phe-Arg-AMC 8 μM, pH 5.5, 15 min preincubation; read-out: hCat F IP
T1 sequence (Q9UBX1 271-484): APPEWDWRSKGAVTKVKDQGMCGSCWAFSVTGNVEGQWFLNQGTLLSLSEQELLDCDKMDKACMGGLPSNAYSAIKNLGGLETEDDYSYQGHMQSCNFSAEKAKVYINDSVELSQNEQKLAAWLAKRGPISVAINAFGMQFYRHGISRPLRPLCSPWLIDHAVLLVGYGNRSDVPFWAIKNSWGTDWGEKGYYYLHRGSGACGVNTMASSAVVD
Procedure: Cathepsin F assay (hCat F)
as §1, with “F (10” for “K (0.4”, “Z-Phe-Arg-AMC” for “Z-Leu-Arg-AMC”, “(Exp, =360” for “(Exλ=360”, “EmX=460” for “Emλ=460”, “20” for “30”

| SMILES | IC50 (human cathepsin K) [nM] | IC50 (human cathepsin F) [nM] |
| --- | --- | --- |
| CC(C)(C)c1ccc(-c2nc(-c3ccc(N4CCS(=O)(=O)CC4)cc3)c([C@@H]3CCCC[C@H]3C(=O)NC3(C#N)CC3)o2)cc1 [Example 89, (1R,2R)-2-(2-(4-(tert-butyl)phenyl)-4-(4-(1,1-dioxidothiomorpholino)phenyl)oxazol-5-yl)-N-(1-cyanocyclopropyl) cyclohexanecarboxamide] | 1.35 | 819 |
| N#CC1(NC(=O)[C@@H]2C[C@@H](F)CC[C@H]2c2oc(C(F)(F)F)nc2-c2ccc(N3CCS(=O)(=O)CC3)cc2)CC1 [Example 146, (1R,2R,5S)-N-(1-cyanocyclopropyl)-2-(4-(4-(1,1-dioxidothiomorpholino)phenyl)-2-(trifluoromethyl)oxazol-5-yl)-5-fluorocyclohexane-carboxamide] | 1.92 | 352 |
| CN(C(=O)OC(C)(C)C)c1ccc(-c2nc(-c3ccc(F)cc3)oc2[C@@H]2CCCC[C@H]2C(=O)NC2(C#N)CC2)cc1 [Example 48, tert-butyl (4-(5-((1R,2R)-2-((1-cyanocyclopropyl)carbamoyl)cyclohexyl)-2-(4-fluorophenyl)oxazol-4-yl)phenyl)(methyl)carbamate] | 7.4 | 176 |
| CC(C)(C)c1nc(-c2ccc(N3CCS(=O)(=O)CC3)cc2)c([C@@H]2CCCC[C@H]2C(=O)NC2(C#N)CC2)o1 [Example 11, (1R,2R)-2-(2-(tert-butyl)-4-(4-(1,1-dioxidothiomorpholino)phenyl)oxazol-5-yl)-N-(1-cyanocyclopropyl) cyclohexanecarboxamide] | 0.69 | 681 |
| N#CC1(NC(=O)[C@@H]2CCCC[C@H]2c2oc(-c3cncnc3)nc2-c2ccc(N3CCS(=O)(=O)CC3)cc2)CC1 [Example 35, (1R,2R)-N-(1-cyanocyclopropyl)-2-(4-(4-(1,1-dioxidothiomorpholino)phenyl)-2-(pyrimidin-5-yl)oxazol-5-yl) cyclohexanecarboxamide] | 1.11 | 993 |
| N#CC1(NC(=O)[C@@H]2CCCC[C@H]2c2sc(C(F)(F)F)nc2-c2ccc(N3CCS(=O)(=O)CC3)cc2)CC1 [Example 60, (1R,2R)-N-(1-cyanocyclopropyl)-2-(4-(4-(1,1-dioxidothiomorpholino)phenyl)-2-(trifluoromethyl)thiazol-5-yl)cyclohexanecarboxamide] | 4.37 | 3290 |
| N#CC1(NC(=O)[C@@H]2CC(F)(F)CC[C@H]2c2oc(CC(F)(F)F)nc2-c2ccc(N3CCS(=O)(=O)CC3)cc2)CC1 [Example 16, (1R,2R)-N-(1-cyanocyclopropyl)-2-(4-(4-(1,1-dioxidothiomorpholino)phenyl)-2-(2,2,2-trifluoroethyl)oxazol-5-yl)-5,5-difluorocyclohexane-carboxamide] | 0.61 | 209 |
| N#CC1(NC(=O)[C@@H]2CCCC[C@H]2c2oc(N3CCC(F)(F)CC3)nc2-c2ccc(N3CCS(=O)(=O)CC3)cc2)CC1 [Example 4, (1R,2R)—N-(1-Cyanocyclopropyl)-2-(2-(4,4-difluoropiperidin-1-yl)-4-(4-(1,1-dioxidothiomorpholino)phenyl)oxazol-5-yl)cyclohexanecarboxamide] | 6.37 | ≥ 10000 |
| N#CC1(NC(=O)[C@@H]2CCCC[C@H]2c2oc(-c3cccc(OC(F)(F)F)c3)nc2-c2ccc(N3CCS(=O)(=O)CC3)cc2)CC1 [Example 86, (1R,2R)-N-(1-cyanocyclopropyl)-2-(4-(4-(1,1-dioxidothiomorpholino)phenyl)-2-(3-(trifluoromethoxy)phenyl)oxazol-5-yl)cyclohexanecarboxamide] | 2.62 | 1830 |
| N#CC1(NC(=O)[C@@H]2CCCC[C@H]2c2oc(-c3ccc(F)cc3)nc2-c2ccc(N3CCc4ccccc43)cc2)CC1 [Example 152, (1R,2R)-N-(1-cyanocyclopropyl)-2-(2-(4-fluorophenyl)-4-(4-(indolin-1-yl)phenyl)oxazol-5-yl)cyclohexanecarboxamide] | 89.7 | 839 |
| N#CC1(NC(=O)[C@@H]2CCCC[C@H]2c2oc(-c3cccc(Cl)c3F)nc2-c2ccc(N3CCS(=O)(=O)CC3)cc2)CC1 [Example 6, (1R,2R)-2-(2-(3-chloro-2-fluorophenyl)-4-(4-(1,1-dioxidothiomorpholino)phenyl)oxazol-5-yl)-N-(1-cyanocyclopropyl)cyclohexanecarboxamide] | 0.48 | 631 |
| N#CC1(NC(=O)[C@@H]2CCCC[C@H]2c2oc(-c3ncccn3)nc2-c2ccc(N3CCS(=O)(=O)CC3)cc2)CC1 [Example 90, (1R,2R)-N-(1-cyanocyclopropyl)-2-(4-(4-(1,1-dioxidothiomorpholino)phenyl)-2-(pyrimidin-2-yl)oxazol-5-yl)cyclohexanecarboxamide] | 7.28 | ≥ 10000 |
| N#CC1(NC(=O)[C@@H]2CC(F)(F)CC[C@H]2c2oc(-c3ccc(F)cc3)nc2-c2ccc(N3CCS(=O)(=O)CC3)cc2)CC1 [Example 20, (1R,2R)-N-(1-cyanocyclopropyl)-2-(4-(4-(1,1-dioxidothiomorpholino)phenyl)-2-(4-fluorophenyl)oxazol-5-yl)-5,5-difluorocyclohexane-carboxamide] | 0.28 | 71 |
| N#CC1(NC(=O)[C@@H]2CCCC[C@H]2c2oc(-c3ccc(F)cc3F)nc2-c2ccc(C(=O)N3CCOCC3)cc2)CC1 [Example 120, (1R,2R)-N-(1-cyanocyclopropyl)-2-(2-(2,4-difluorophenyl)-4-(4-(morpholine-4-carbonyl)phenyl)oxazol-5-yl)cyclohexanecarboxamide] | 14.5 |  |
| N#CC1(NC(=O)[C@@H]2CCCC[C@H]2c2oc(-c3ccc(F)cc3F)nc2-c2ccc(N3CCS(=O)(=O)CC3)cc2)CC1 [Example 27, (1R,2R)-N-(1-cyanocyclopropyl)-2-(2-(2,4-difluorophenyl)-4-(4-(1,1-dioxidothiomorpholino)phenyl)oxazol-5-yl)cyclohexanecarboxamide] | 0.37 | 681 |
| CC(C)[C@@H](C#N)NC(=O)[C@@H]1CCCC[C@H]1c1oc(-c2ccc(F)cc2)nc1-c1ccc(N2CC[S+]([O-])CC2)cc1 [Example 151, (1R,2R)-N-((S)-1-cyano-2-methylpropyl)-2-(2-(4-fluorophenyl)-4-(4-(1-oxidothiomorpholino)phenyl)oxazol-5-yl)cyclohexanecarboxamide] | 3.11 | 628 |
| N#CC1(NC(=O)[C@@H]2CCCC[C@H]2c2oc(C(F)(F)F)nc2-c2ccc(N3CCS(=O)(=O)CC3)cc2)CC1 [Example 13, (1R,2R)-N-(1-cyanocyclopropyl)-2-(4-(4-(1,1-dioxidothiomorpholino)phenyl)-2-(trifluoromethyl)oxazol-5-yl)cyclohexanecarboxamide] | 0.46 | 628 |
| N#CC1(NC(=O)[C@@H]2CCCC[C@H]2c2oc(N3CCOCC3)nc2-c2ccc(N3CCS(=O)(=O)CC3)cc2)CC1 [Example 47, (1R,2R)-N-(1-cyanocyclopropyl)-2-(4-(4-(1,1-dioxidothiomorpholino)phenyl)-2-morpholinooxazol-5-yl)cyclohexanecarboxamide] | 3.11 |  |
| N#CC1(NC(=O)[C@@H]2CCCC[C@H]2c2oc(-c3ccc(S(=O)(=O)C(F)(F)F)cc3)nc2-c2ccc(N3CCS(=O)(=O)CC3)cc2)CC1 [Example 104, (1R,2R)-N-(1-cyanocyclopropyl)-2-(4-(4-(1,1-dioxidothiomorpholino)phenyl)-2-(4-((trifluoromethyl)sulfonyl)phenyl)oxazol-5-yl)cyclohexanecarboxamide] | 2.4 |  |
| N#CC1(NC(=O)[C@@H]2CCCC[C@H]2c2oc(-c3ccc(F)cc3)nc2-c2ccc(N3CCOCC3)cc2)CC1 [Example 17, (1R,2R)-N-(1-cyanocyclopropyl)-2-(2-(4-fluorophenyl)-4-(4-morpholinophenyl)oxazol-5-yl)cyclohexanecarboxamide] | 9.36 |  |
| CC(C#N)NC(=O)[C@@H]1CCCC[C@H]1c1oc(-c2ccc(F)cc2F)nc1-c1ccc(N2CCS(=O)(=O)CC2)cc1 (single isomer, unassigned) [Example 45, (1R,2R)-N-((R or S)-1-cyanoethyl)-2-(2-(2,4-difluorophenyl)-4-(4-(1,1-dioxidothiomorpholino)phenyl)oxazol-5-yl)cyclohexanecarboxamide] | 32.7 |  |
| N#CC1(NC(=O)[C@@H]2CCCC[C@H]2c2oc(-c3ccc(Cl)c(F)c3)nc2-c2ccc(N3CCS(=O)(=O)CC3)cc2)CC1 [Example 76, (1R,2R)-2-(2-(4-chloro-3-fluorophenyl)-4-(4-(1,1-dioxidothiomorpholino)phenyl)oxazol-5-yl)-N-(1-cyanocyclopropyl) cyclohexanecarboxamide] | 1.1 |  |
